Results reported in patent publication EP1908472A1, “Silicon derivatives for PET imaging” (Bayer Schering Pharma Aktiengesellschaft, priority 2006, dated 2008).

What was measured:
[1] = Hydrolytic stability of 19F fluorosilanes (hydrolysis to the hydroxy compound) at physiological pH; format: physicochemical; details: for remaining at 6 h / half-life: buffer; for remaining at 6 h: fraction of intact 19F compound after 6 hours under hydrolytic conditions at pH 7; for half-life: hydrolytic halflife, physiological pH (7.0), 19F compound, calculated from the kinetics; for rel. stability: ratio of hydrolytic halflife to radioactive halflife of 18-F (1.83 hours), pH 7.0
Procedure: The time dependent degree of hydrolysis of compounds of formula I in which X is a fluorine atom of isotope 19 to compounds of formula I in which X is a hydroxy group was determined at physiological pH (7.0). From the kinetics the hydrolytic halflife (t1/2) measured in hours [h] of compounds of formula I in which X is a fluorine atom of isotope 19 were calculated (Table 1, column 2).
The ratio of the hydrolytic halflifes of compounds of formula I in which X is a fluorine atom of isotope 19 and the radioactive halflife of the 18-F isotope (1.83 hours) is defined as relative stability (Table 1, column 3).
After 6 hours 90% of the 18-F isotope have been decayed.
Compounds of formula I in which X is a fluorine atom of isotope 18 are considered as useful for PET applications if the relative stability of their analogs bearing a fluorine atom of isotope 19 exceed a factor of four and if at least 50% of these compounds remain intact after 6 hours under hydrolytic conditions at pH 7.

[2] = rats allowed to inhale the gas; shows fast release of fluoride in vivo; cited from earlier work

CC(C)[Si](F)(c1ccc(COC2CCCCO2)cc1)C(C)C (racemic) [3a - F, (RS)-Fluoro-diisopropyl-[4-(tetrahydro-pyran-2-yloxymethyl)-phenyl]-silane]
remaining at 6 h [1]: 90%
half-life [1]: 49.4 h
rel. stability [1]: 27.0

CC(C)[Si](F)(c1ccc(CCOC2CCCCO2)cc1)C(C)C (racemic) [3b - F, (RS)-Fluoro-diisopropyl-{4-[2-(tetrahydro-pyran-2-yloxy)-ethyl]-phenyl}-silane]
remaining at 6 h [1]: 94%
half-life [1]: 76.4 h
rel. stability [1]: 41.8

CC(C)[Si](F)(c1ccc(CCCOC2CCCCO2)cc1)C(C)C (racemic) [3c - F, (RS)-Fluoro-diisopropyl-{4-[3-(tetrahydro-pyran-2-yloxy)-propyl]-phenyl}-silane]
remaining at 6 h [1]: 95%
half-life [1]: 99.9 h
rel. stability [1]: 54.6

CC(C)[Si](F)(c1cccc(CCCOC2CCCCO2)c1)C(C)C (racemic) [3d - F, (RS)-Fluoro-diisopropyl-{3-[3-(tetrahydro-pyran-2-yloxy)-propyl]-phenyl}-silane]
remaining at 6 h [1]: > 95%
half-life [1]: > 100 h
rel. stability [1]: > 54.6

CC(C)[Si](F)(c1cccc(CCOC2CCCCO2)c1)C(C)C (racemic) [3e - F, (RS)-Fluoro-diisopropyl-{3-[2-(tetrahydro-pyran-2-yloxy)-ethyl]-phenyl}-silane]
remaining at 6 h [1]: > 95%
half-life [1]: > 100 h
rel. stability [1]: > 54.6

F[Si](c1ccccc1)(c1ccccc1)c1ccc(CCOC2CCCCO2)cc1 (racemic) [3f - F, (RS)-Fluoro-diphenyl-{4-[2-(tetrahydro-pyran-2-yloxy)-ethyl]-phenyl}-silane]
remaining at 6 h [1]: < 1%
half-life [1]: 0.07 h
rel. stability [1]: 0.04

CC(C)C[Si](F)(CC(C)C)c1ccc(COC2CCCCO2)cc1 (racemic) [Compound 3g-F, (RS)-Fluoro-diisobutyl-[4-(tetrahydro-pyran-2-yloxymethyl)-phenyl]-silane]
remaining at 6 h [1]: 59%
half-life [1]: 8.1 h
rel. stability [1]: 4.5

CC(C)C[Si](F)(CC(C)C)c1ccc(CCOC2CCCCO2)cc1 (racemic) [Compound 3h-F, (RS)-Fluoro-diisobutyl-{4-[2-(tetrahydro-pyran-2-yloxy)-ethyl]-phenyl}-silane]
remaining at 6 h [1]: 79%
half-life [1]: 19.2 h
rel. stability [1]: 10.7

CC(C)[Si](F)(c1ccc(CO)cc1)C(C)C [4a -F, [4-(Fluoro-diisopropyl-silanyl)-phenyl]-methanol]
remaining at 6 h [1]: 85%
half-life [1]: 28.1 h
rel. stability [1]: 15.4

CC(C)[Si](F)(c1ccc(CCO)cc1)C(C)C [4b - F, 2-[4-(Fluoro-diisopropyl-silanyl)-phenyl]-ethanol]
remaining at 6 h [1]: 84%
half-life [1]: 66.8 h
rel. stability [1]: 36.5

CC(C)[Si](F)(c1ccc(CCCO)cc1)C(C)C [4c - F, 3-[4-(Fluoro-diisopropyl-silanyl)-phenyl]-propan-1-ol]
remaining at 6 h [1]: 90%
half-life [1]: > 100 h
rel. stability [1]: > 54.6

CC(C)[Si](F)(c1cccc(CCCO)c1)C(C)C [4d - F, 3-[3-(Fluoro-diisopropyl-silanyl)-phenyl]-propan-1-ol]
remaining at 6 h [1]: 89%
half-life [1]: 43.3 h
rel. stability [1]: 23.7

CC(C)[Si](F)(c1cccc(CCO)c1)C(C)C [4e - F, 2-[3-(Fluoro-diisopropyl-silanyl)-phenyl]-ethanol]
remaining at 6 h [1]: 78%
half-life [1]: 23.3 h
rel. stability [1]: 12.7

CC(C)[Si](F)(c1ccc(C(=O)O)cc1)C(C)C [5a - F, 4-(Fluoro-diisopropyl-silanyl)-benzoic acid]
remaining at 6 h [1]: 66%
half-life [1]: 10.9 h
rel. stability [1]: 6.1

CC(C)[Si](F)(c1ccc(CC(=O)O)cc1)C(C)C [5b - F, [4-(Fluoro-diisopropyl-silanyl)-phenyl]-acetic acid]
remaining at 6 h [1]: 82%
half-life [1]: 24.7 h
rel. stability [1]: 13.5

CC(C)[Si](F)(c1ccc(CCC(=O)O)cc1)C(C)C [5c - F, 3-[4-(Fluoro-diisopropyl-silanyl)-phenyl]-propionic acid]
remaining at 6 h [1]: 92%
half-life [1]: 59 h
rel. stability [1]: 32.2

CC(C)[Si](F)(c1cccc(CCC(=O)O)c1)C(C)C [5d - F, 3-[3-(Fluoro-diisopropyl-silanyl)-phenyl]-propionic acid]
remaining at 6 h [1]: 81%
half-life [1]: 22.2 h
rel. stability [1]: 12.1

CC(C)[Si](F)(c1cccc(CC(=O)O)c1)C(C)C [5e - F, [3-(Fluoro-diisopropyl-silanyl)-phenyl]-acetic acid]
remaining at 6 h [1]: 78%
half-life [1]: 20 h
rel. stability [1]: 10.9

CC(C)C[Si](F)(CC(C)C)c1ccc(C(=O)O)cc1 [5g - F, 4-(Fluoro-diisobutyl-silanyl)-benzoic acid]
remaining at 6 h [1]: 31%
half-life [1]: 3.5 h
rel. stability [1]: 1.9

CC(C)C[Si](F)(CC(C)C)c1ccc(CC(=O)O)cc1 [5h - F, [4-(Fluoro-diisobutyl-silanyl)-phenyl]-acetic acid]
remaining at 6 h [1]: 61%
half-life [1]: 8.7 h
rel. stability [1]: 4.8

CC(C)[Si](F)(CCCNC(=O)c1ccccc1)C(C)C [22 - F, N-[3-(Fluoro-diisopropyl-silanyl)-propyl]-benzamide]
remaining at 6 h [1]: 83%
half-life [1]: 33.6 h
rel. stability [1]: 18.4

CC(C)C[Si](F)(CCCCC(=O)Nc1ccccc1)CC(C)C [30a - 1F, 5-(Fluoro-diisobutyl-silanyl)-pentanoic acid phenylamide]
remaining at 6 h [1]: 71%
half-life [1]: 13.8 h
rel. stability [1]: 7.5

C[Si](C)(C)[18F] [^18F-Fluorotrimethylsilane]
uptake of ^18F in the bone [2]: extensive uptake of ^18F in the bone
